Test results published in patent US6376488B1, “Benzoxazine α-1 adrenergic compounds” (Abbott Laboratories, priority 2000, dated 2002).

Legend:
[1] = target: T1, α1a (rat) adrenoreceptor (Rattus norvegicus, UniProt P43140); assay: [3H]-prazosin radioligand binding, cloned α1a (rat) adrenoreceptor in LTK cells; details: cloned receptor in LTK cell membranes, [3H]prazosin 0.2 nM
T1 sequence (P43140 1-466): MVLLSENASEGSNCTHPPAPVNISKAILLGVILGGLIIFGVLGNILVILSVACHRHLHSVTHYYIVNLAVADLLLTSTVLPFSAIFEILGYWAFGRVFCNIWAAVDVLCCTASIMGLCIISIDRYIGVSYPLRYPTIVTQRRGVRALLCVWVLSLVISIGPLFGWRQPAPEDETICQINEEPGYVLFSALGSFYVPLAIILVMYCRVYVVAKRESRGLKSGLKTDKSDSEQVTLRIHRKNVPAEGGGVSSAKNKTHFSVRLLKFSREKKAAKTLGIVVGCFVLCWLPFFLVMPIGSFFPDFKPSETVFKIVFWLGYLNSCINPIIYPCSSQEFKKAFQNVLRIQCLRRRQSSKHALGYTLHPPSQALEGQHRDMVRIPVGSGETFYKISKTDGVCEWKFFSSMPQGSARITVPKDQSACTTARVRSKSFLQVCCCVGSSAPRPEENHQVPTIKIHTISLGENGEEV
From the text: (§1) The cDNA clones encoding the α1, adrenoreceptors were obtained from TULCO (Triangle Universities Licensing Consortium, Research Triangle Park, N.C.) and inserted into the eukaryotic expression vector SnaB30. In this vector, expression of the adrenoreceptor gene is under the transcriptional control of an SV40 early promoter. Positive drug selection is provided by a neomycin-resistance gene. Mouse fibroblast cells (LTK) were transfected with the α1 expression plasmids and grown in Dulbecco's modified Eagle's medium (DMEM) containing 10% fetal calf serum and 30 μM G418. […] Stable single cell clones derived from the parental lines were screened in adrenoreceptor binding assays to identify clones having high adrenoreceptor density. Roller bottle cultures of the cloned lines were used to provide cell membranes for subsequent adrenoreceptor binding characterization studies. A cell line containing the SnaB30 vector expressing the human erythropoietin gene served as a negative control.
(§2) For adrenoreceptor binding assays, large scale membrane preparations were utilized in which 6 million cells were seeded into small (450 cm^2) Coming tissue culture roller bottles. DMEM (200 mL) containing 10% fetal calf serum and 300 μM G418 were added to each roller bottle. A 95% air/5% CO2 gas mixture (sterile) was injected into each roller bottle prior to sealing, and the bottles were then incubated at 37° C. on a roller rack for 5 days. Cells were refed with fresh medium after 3 days in culture.
(§3) On the fifth day of culture, growth medium was removed from cells grown in roller bottles, and the cells were washed twice with PBS (Sigma, 120 mM NaCl, 2.7 mM KCl, 10 mM Na2HPO4-NaH2PO4, pH=7.4). Cells were detached from the roller bottles by incubating for 15 minutes at 37° C. in a Tris-EDTA solution (10 mM Tris, 100 mM NaCl, 1 mM EDTA, pH=7.4). The cell suspension from each roller bottle was decanted into tared centrifuge tubes and kept on ice. An aliquot of each cell suspension was generally taken for cell counting. Cells were centrifuged at 3000×G for 5 minutes at 2-4° C., washed with PBS and recentrifuged. The supernatant was decanted, and the pellet was weighed to determine the wet weight of cells. Cells were washed a final time in 40 vol 5 mM Tris-HCl, 5 mM EDTA, pH=7.7 and centrifuged at 40,000×G for 10 minutes (“vol” indicates volume/weight, e.g., a “vol” of 40 would indicate that the one gram of cells were washed with 40 mls of buffer). Cells were homogenized in of 50 mM Tris-HCl, 5 mM EDTA (pH=7.4) (10 mL) and diluted to 40 mL/tube. Homogenates were centrifuged at 40,000×G for 10 minutes. The supernatant was decanted and the pellets rehomogenized in 50 mM Tris-HCl (pH=7.4) and centrifuged as before.
(§4) Following equilibration, bound radioligand was separated from free on GF/B filters (presoaked in 0.5% polyethyleneimine) using ither a Brandel or Packard cell harvester. Radioactivity was determined by standard liquid scintillation techniques.

[2] = target: T2, α1b (Hamster) adrenoreceptor (Mesocricetus auratus, UniProt P18841); assay: [3H]-prazosin radioligand binding, cloned α1b (hamster) adrenoreceptor in LTK cells; details: cloned receptor in LTK cell membranes, [3H]prazosin 0.2 nM
T2 sequence (P18841 1-515): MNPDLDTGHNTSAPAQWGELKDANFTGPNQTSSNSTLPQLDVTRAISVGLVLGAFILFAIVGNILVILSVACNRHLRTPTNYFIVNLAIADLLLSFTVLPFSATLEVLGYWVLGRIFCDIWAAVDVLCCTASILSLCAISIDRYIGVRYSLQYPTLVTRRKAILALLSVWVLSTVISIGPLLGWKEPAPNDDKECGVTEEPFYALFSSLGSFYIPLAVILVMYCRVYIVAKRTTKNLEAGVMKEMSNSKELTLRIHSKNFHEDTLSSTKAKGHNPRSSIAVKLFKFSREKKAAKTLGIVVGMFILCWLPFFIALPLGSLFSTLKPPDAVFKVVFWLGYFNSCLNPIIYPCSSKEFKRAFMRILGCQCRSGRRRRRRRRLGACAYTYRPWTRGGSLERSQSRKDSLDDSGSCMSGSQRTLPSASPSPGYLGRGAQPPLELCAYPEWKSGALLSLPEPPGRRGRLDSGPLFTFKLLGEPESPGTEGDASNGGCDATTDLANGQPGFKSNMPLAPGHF
From the text: as §1, §2, §3, §4

Row | Ki [1] | Ki [2] | melting point | Structure (SMILES)
1 | 0.864 nM | 6.89 nM | 297 to 298 °C | COc1cccc2c1N1CCN(CCn3c(=O)[nH]c4c(sc5cccnc54)c3=O)CC1CO2.Cl.Cl (single isomer, unassigned; (-)) [Example 7, (−) 3-[2-(10methoxy-1,2,4a,5-tetrahydropyrazino[2,1-c][1,4]benzoxazin-3(4H)-yl)ethyl]pyrido[2′,3′:4,5]thieno[3,2-d]pyrimidine-2,4(1H,3H)-dione dihydrochloride]
2 | 0.648 nM | 8.91 nM | 198 to 201 °C | COc1cccc2c1N1CCN(CCCCn3c(=O)[nH]c4c(sc5ncc(Cl)nc54)c3=O)CC1CO2.Cl.Cl (single isomer, unassigned; (-)) [Example 12, (−) 3-[4-(10-methoxy-1,2,4a,5-tetrahydropyrazino[2,1-c][1,4]benzoxazin-3(4H)-yl)butyl]-8-chloropyrazino[2′,3′:4,5]thieno[3,2-d]pyrimidine-2,4(1H,3H)-dione dihydrochloride]
3 | 5.02 nM | 40.6 nM | 288 to 291 °C | Cl.Cl.O=c1[nH]c2c(sc3ncccc32)c(=O)n1CCCCN1CCN2c3ccccc3OCC2C1 (single isomer, unassigned; (+)) [Example 5, (+) 3-[4-(1,2,4a,5-tetrahydropyrazino[2,1-c][1,4]benzoxazin-3(4H)-yl)butyl]pyrido[3′, 2′:4,5]thieno[3,2-d]pyrimidine-2,4(1H,3H)-dione dihydrochloride]
